Reference: patent EP4574151A1, “INHIBITORS OF G12V-MUTATED RAS PROTEIN TO TREAT CANCER” (Personather Spolka Z Ograniczona Odpowiedzialnoscia, priority 2023, dated 2025)
“Also recorded” adds a separate entry of the source.

Experiments:
[1] = system: SW620 cells (with RASG12V mutation); experiment: Crystal violet cytotoxicity test (IC50) in KRASG12V positive cells; type: cell-based; details: for toxicity towards KRASG12V positive cells (SW620) compared to normal cells (NIH/3T3): ratio from IC50 values, crystal violet test, 72 hours incubation; for toxicity against cancer cells expressing KRASG12V: summary statement
From the text: IC50 (half-maximal inhibitory concentration) is the concentration value of a tested compound which inhibits biochemical and biological functions of cells in half of the tested population. Determining this indicator is extremely important for assessing the cytotoxicity of molecules with therapeutic potential.
The first step in developing the methodology for determining IC50 was to conduct density tests to determine the appropriate number of cells to use in cytotoxicity tests. The different content of bovine fetal serum in the culture medium was also investigated to rule out any potential impact on the reduction in cell count, regardless of the analyzed molecules.
As a research model, colon cancer and lung cancer cell lines (sensitive lines) were used, including SW620, SW480, and COR-L23, respectively, which are characterized by the KRASG12V gene mutation and lack of other alterations in genes belonging to the RAS protein signaling pathway, as well as a stable line of normal cells (mouse fibroblasts), which serve as a platform for evaluating the impact of tested compounds on non-cancer cells. Below is the result for one of the analyzed cell lines with the mutation. Similar differences in IC50 values compared to normal cells were obtained for the other cell lines mentioned above with the RASG12V mutation.
The effect of molecules on the biology of selected cell lines to assess their cytotoxicity using the IC50 indicator was carried out according to the protocol below: • 1. The cells of the tested lines were seeded in wells of a 96-well plate at specified densities. • 2. After seeding, the cells were subjected to a 24-hour incubation in medium with a 1% and 2.5% addition of serum (sensitive lines) or in medium with a 0.5% addition of serum (normal line). • 3. The cells were exposed to selected molecules at selected concentrations. The control was provided by the culture medium without any added compounds. Concentrations of the tested molecules [uM]: • □ NIH3T3: 500; 250; 125; 62,5; 31,25 • □ SW620: 60; 30; 15; 7,5; 3,75 • 4. After 72 hours of incubation, the culture medium was removed and the cells were washed twice with buffer saline solution (PBS). Then, the cells were incubated for 10 minutes with a 0.1% solution of crystal violet at room temperature (Merck Millipore). • 5. After 10 minutes, the crystal violet solution was removed and the wells of the 96-well plate were washed twice with PBS solution. • 4. 50% ice-cold acetic acid solution was added to each well and incubated again for 10 minutes at room temperature on a shaker at 650 rpm. • 5. Absorbance measurement was performed using a plate reader, at a wavelength of λ = 540 nm

[2] = system: SW480 cell line; experiment: Western Blot analysis of the RAS-controlled signal transduction pathway in a cancer cell line expressing KRASG12V; type: cell-based; details: SW480 cell line with RASG12V mutation; 1, 5 and 10 µM; 24 hours; serum-free
From the text: Analysis of the impact of the tested compound on the signal transduction pathway controlled by RAS family proteins in cancer cell lines expressing KRASG12V based on the Western Blot method.
The example illustrates the impact of the PER154A and PER160A molecules on the signal transduction pathway in the cancer cell line SW480.
• 1. SW480 cell line at 80-90% confluence was rinsed with PBS without Mg2+ and Ca2+ ions. Remove PBS. • 2. Cells were detached from the vessel using Trypsin-EDTA (0.05%, 1x) for 1-3 minutes at 37°C. • 3. Cells were transferred to a 15 ml tube, centrifuged (200xg, 4 min) and suspended in DMEM High Glucose (HG) medium with 10% bovine serum and antibiotics. • 4. Cells were counted. • 5. 5x10^5 cells were added to each well of a 6-well plate for adherent culture. • 6. The above medium was replenished and left for approximately 24 hours.
• 7. Cells were washed 2-3 times with buffered saline solution without Mg2+ and Ca2+ ions. PBS was carefully removed each time. • 8. 2 ml of DMEM HG medium with antibiotics and without serum was added, left for approximately 24 hours.
• 9. The cells were washed 2-3 times with buffered saline without Mg2+ and Ca2+ ions. PBS was carefully removed each time. • 10. […]

| Structure (SMILES) | toxicity towards KRASG12V positive cells (SW620) compared to normal cells (NIH/3T3) [1] | toxicity against cancer cells expressing KRASG12V [1] | impact on downstream signal transduction pathways in relation to RASG12V (AKT, ERK phosphorylation) [2] |
| --- | --- | --- | --- |
| O=C(Nc1ccc2c(c1)OCCO2)c1ccc2c(c1)C1C3CCC(C3)C1C(c1ccccc1)N2 (stereo not drawn) [PER154A] | about 85 times | toxicity | Significant impact; also recorded: blocks |
| O=C(Nc1ccc(F)cc1)c1ccc2c(c1)C1C3CCC(C3)C1C(c1ccccc1)N2 (stereo not drawn) [PER160A] | over 36 times | toxicity | Significant impact; also recorded: blocks |
